For one assay, the target named is Thymidylate synthase (Homo sapiens, UniProt P04818). Put plainly: In vitro inhibition of human thymidylate synthase (TS).
Assay [1] addresses T1, Trifunctional purine biosynthetic protein adenosine-3 (Mus musculus, UniProt Q64737).
T1 sequence (Q64737 whole entry): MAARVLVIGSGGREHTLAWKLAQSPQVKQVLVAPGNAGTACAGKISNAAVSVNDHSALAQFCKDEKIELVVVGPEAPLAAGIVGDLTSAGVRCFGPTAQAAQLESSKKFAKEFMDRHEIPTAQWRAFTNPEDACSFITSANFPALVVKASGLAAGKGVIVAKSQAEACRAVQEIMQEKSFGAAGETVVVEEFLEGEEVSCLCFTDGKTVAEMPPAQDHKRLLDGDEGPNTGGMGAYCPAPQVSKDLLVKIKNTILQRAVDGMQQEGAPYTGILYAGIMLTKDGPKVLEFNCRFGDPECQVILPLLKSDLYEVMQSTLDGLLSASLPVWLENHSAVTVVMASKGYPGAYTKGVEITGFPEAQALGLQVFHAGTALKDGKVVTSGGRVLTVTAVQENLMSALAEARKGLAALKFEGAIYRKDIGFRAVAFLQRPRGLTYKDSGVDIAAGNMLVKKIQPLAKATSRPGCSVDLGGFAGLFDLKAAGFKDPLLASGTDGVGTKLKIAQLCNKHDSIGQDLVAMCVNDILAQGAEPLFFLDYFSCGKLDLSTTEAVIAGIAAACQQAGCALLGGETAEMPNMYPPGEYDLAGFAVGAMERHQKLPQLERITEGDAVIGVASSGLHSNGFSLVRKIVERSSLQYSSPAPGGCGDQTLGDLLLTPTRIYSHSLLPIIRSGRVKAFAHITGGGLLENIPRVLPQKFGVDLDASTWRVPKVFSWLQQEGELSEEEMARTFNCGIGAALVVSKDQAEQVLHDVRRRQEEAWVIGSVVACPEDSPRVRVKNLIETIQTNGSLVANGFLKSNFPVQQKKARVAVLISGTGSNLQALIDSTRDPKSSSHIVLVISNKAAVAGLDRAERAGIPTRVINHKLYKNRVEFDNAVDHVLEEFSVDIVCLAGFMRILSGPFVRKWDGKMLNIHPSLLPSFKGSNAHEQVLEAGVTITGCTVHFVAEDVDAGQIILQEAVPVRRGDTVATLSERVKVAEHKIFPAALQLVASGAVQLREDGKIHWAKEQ
The assay is described as follows: In vitro inhibition of mouse GAR transformylase.

The target of assay [2] is T2, Folylpolyglutamate synthase, mitochondrial (Mus musculus, UniProt P48760).
T2 sequence (P48760 whole entry): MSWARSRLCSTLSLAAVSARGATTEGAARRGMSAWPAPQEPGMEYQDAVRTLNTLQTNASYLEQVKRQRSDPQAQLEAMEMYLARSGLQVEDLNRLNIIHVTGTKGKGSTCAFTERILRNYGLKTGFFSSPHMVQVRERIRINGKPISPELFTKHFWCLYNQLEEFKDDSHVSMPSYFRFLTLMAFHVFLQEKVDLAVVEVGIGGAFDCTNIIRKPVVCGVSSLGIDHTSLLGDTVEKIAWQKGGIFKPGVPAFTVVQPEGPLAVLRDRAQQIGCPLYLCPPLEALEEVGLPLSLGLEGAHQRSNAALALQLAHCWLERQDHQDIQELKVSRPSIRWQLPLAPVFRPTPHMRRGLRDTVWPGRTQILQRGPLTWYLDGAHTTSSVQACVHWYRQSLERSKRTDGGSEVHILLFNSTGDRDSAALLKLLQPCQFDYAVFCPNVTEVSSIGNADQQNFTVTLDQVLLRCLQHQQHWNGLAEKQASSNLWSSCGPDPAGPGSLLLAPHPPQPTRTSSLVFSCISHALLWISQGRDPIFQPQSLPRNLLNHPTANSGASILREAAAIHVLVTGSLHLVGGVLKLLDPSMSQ
Put plainly: In vitro inhibition of mouse liver Folyl-polyglutamate synthase.

The next assay concerns the target T3, Dihydrofolate reductase (Homo sapiens, UniProt P00374).
T3 sequence (P00374 whole entry): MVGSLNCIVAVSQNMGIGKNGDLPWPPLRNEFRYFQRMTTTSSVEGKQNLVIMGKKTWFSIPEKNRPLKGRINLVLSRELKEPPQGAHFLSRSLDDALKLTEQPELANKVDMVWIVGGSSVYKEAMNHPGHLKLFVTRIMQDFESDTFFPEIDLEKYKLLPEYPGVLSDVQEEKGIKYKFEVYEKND
Put plainly: In vitro inhibition of human dihydrofolate reductase (DHFR).

The target in assay [3] is T1, Trifunctional purine biosynthetic protein adenosine-3. Put plainly: In vitro inhibition of Glycinamide ribonucleotide formyltransferase from L1210 murine leukemia cells.

Each structure is given as a SMILES string.

Sequence of Thymidylate synthase (P04818 whole entry): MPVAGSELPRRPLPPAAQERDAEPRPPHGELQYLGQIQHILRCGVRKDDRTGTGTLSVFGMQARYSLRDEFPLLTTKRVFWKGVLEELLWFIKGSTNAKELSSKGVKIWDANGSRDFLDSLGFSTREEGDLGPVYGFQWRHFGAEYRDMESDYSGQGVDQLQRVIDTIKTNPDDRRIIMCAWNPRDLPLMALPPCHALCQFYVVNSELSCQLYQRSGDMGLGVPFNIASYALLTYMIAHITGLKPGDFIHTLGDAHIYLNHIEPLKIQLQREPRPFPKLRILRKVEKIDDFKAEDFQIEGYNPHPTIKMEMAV

In the case of `CCCN(Cc1ccc2nc(N)nc(O)c2c1)c1ccc(C(=O)NC(CCC(=O)O)C(=O)O)cc1` (configuration not stated), it took 0.068 µM to reach half-maximal inhibition at Thymidylate synthase (IC50).
As to `Nc1nc(O)c2c(n1)CCC(CNc1ccc(C(=O)NC(CCC(=O)O)C(=O)O)cc1)C2` (configuration not stated), the affinity in assay [1] corresponds to a Ki of 0.065 µM. This counts as double-digit nanomolar.
Take `CCOP(=O)(O)CCC(NC(=O)c1ccc(NCc2cnc3nc(N)[nH]c(=O)c3c2)cc1)C(=O)O` (configuration not stated): the Ki – broadly, a dissociation constant, usually derived from enzyme kinetics or from competition with a known ligand – in assay [2] was found to be 2000 µM. For the same molecule, the IC50 (as a rule, the concentration at which inhibition is half-maximal) against Dihydrofolate reductase was found to be 1.3 µM; on Thymidylate synthase, 100 µM.
For the molecule `Nc1nc(O)c2c(n1)NCC(CNc1ccc(C(=O)NC(CCP(=O)(O)O)C(=O)O)cc1)C2` (configuration not stated), the Ki in assay [2] came to 3.2 µM; in assay [3] it was 0.047 µM. The values for the IC50 against Dihydrofolate reductase and on Thymidylate synthase were 220 µM and 4200 µM, respectively.
Take `Nc1nc2ncc(CNc3ccc(C(=O)NC(CCS(=O)(=O)O)C(=O)O)cc3)cc2c(=O)[nH]1` (configuration not stated): the inhibition constant (Ki) in assay [2] was 570 µM. The results for the IC50 against Dihydrofolate reductase and against Thymidylate synthase were 0.4 µM and 55 µM, respectively.
Taken in the same sequence, the figures for `Nc1nc2ncc(CNc3ccc(C(=O)NC(CCP(=O)(O)O)C(=O)O)cc3)cc2c(=O)[nH]1` (configuration not stated) were 9 µM, 4.7 µM and 300 µM.
In the case of `CCOP(=O)(O)CCC(NC(=O)c1ccc(NCC2CNc3nc(N)nc(O)c3C2)cc1)C(=O)O` (configuration not stated), the Ki in assay [2] amounted to 115 µM. The IC50 was 950 µM against Dihydrofolate reductase and more than 5000 µM on Thymidylate synthase.
With `Nc1nc(O)c2c(n1)NCC(CNc1ccc(C(=O)NC(CCS(=O)(=O)O)C(=O)O)cc1)C2` (configuration not stated), the Ki in assay [2] was found to be 22 µM; in assay [3] it was 0.19 µM. Moreover, the IC50 at Dihydrofolate reductase stood at 12 µM; against Thymidylate synthase, 2100 µM.

(Values after ChEMBL document CHEMBL1125453, “Side chain modified 5-deazafolate and 5-deazatetrahydrofolate analogues as mammalian folylpolyglutamate synthetase and glycinamide ribonucleotide formyltransferase inhibitors: synthesis and in vitro biological evaluation” (J Med Chem, 1992).)
